Laboratory results taken from patent publication US10391148B2, “Method of prevention and inhibition of preterm labor” (Wayne State University, priority 2016, dated 2019).

Tests used:
Type in all cases: in vivo, mouse
[1] = tested on: pregnant female μMT mice (LPS-induced PTL); experiment: LPS-induced preterm labor in pregnant μMT mice: preterm delivery and neonatal/fetal mortality; details: read on gd 17.5, fPIBF1 1 μg (800 ng in method), cPIBF1 300 ng, vs PBS
Procedure: (§1) Six to ten-week old virgin female C57BL/6 (WT) or μMT mice were mated with male Balb/c mice. Female mice were examined daily in the early morning for the presence of a vaginal plug, which denoted gestational day (gd) 0.5. In the late morning of gd 16.5, pregnant female mice were intraperitoneally administered with 200 μl sterile PBS or 200 μl sterile PBS containing 0.5, 2.5, 5, 10 or 20 μg lipopolysaccharides (LPS) from Salmonella enterica serotype typhimurium (Sigma-Aldrich L6143). The various doses of LPS were given to the mice randomly. In some experiments, splenic B cells of 5 to 8-week old virgin female WT or IL-10−/− mice were purified using a mouse resting B cell negative isolation kit (Miltenyi Biotec 130-090-862) to 94% to 99% purity as determined by CD19 staining. 107 purified B cells were adoptively transferred in 200 μl sterile PBS into pregnant female μMT mice on gd 14.5 prior to LPS administration on gd 16.5. In some other experiments, 200 μl sterile PBS or 200 μl sterile PBS containing 800 ng recombinant full-length PIBF1 (fPIBF1) (aa 1-757 (SEQ ID NO:11, with an N-terminal glutathione-S-transferase (GST) tag of 232 amino acids, Abnova H00010464-P01) or 300 ng of a recombinant C-terminal fragment of PIBF1 (cPIBF1) (aa 660-755 (SEQ ID NO:12), with an N-terminal glutathione-S-transferase (GST) tag of 232 amino acids, Abnova H00010464-Q01) was intravenously administered to pregnant female μMT mice on gd 16.5 three hours prior to intraperitoneal LPS administration. 24 hours after LPS administration, female mice were examined for delivery and death of delivered pups if delivery occurred. They were then sacrificed for the examination of neonatal/fetal mortality, which was calculated as the total number of dead delivered pups and dead fetuses divided by the total number of implantation sites. Uteri were collected, briefly washed in PBS and processed for RNA and protein extraction or flow cytometry. The people performing the analysis were not blinded to the genotype or treatment of the mice.
The sample size was calculated based on the effect size derived from preliminary data at 5% significance level and 80% power using the software G*Power 3.1. Sample availability exceeded the estimated sample size. Results are expressed as mean±S.E.M. Percentage data were subjected to square root transformation prior to statistical analysis to verify test assumptions of equal variance. Statistical difference in the rate of PTL between different strains of mice or different treatment groups was assessed by Fisher's exact test. Statistical difference in neonatal/fetal mortality was assessed by Mann-Whitney U test. For flow cytometry and qRT-PCR data, Shapiro-Wilk test was used to determine the normality of the data. Statistical significance was assessed by Student's t-test for normally distributed data and Mann-Whitney U test for non-normally distributed data. p values <0.05 were considered statistically significant.

[2] = tested on: uterine proinflammatory mediators (Tnf, Il6, Mmp9, Cxcl2, Cxcl3, Cxcl5, Il1b, Cxcl10, Ccl3, Cxcl1, Ccl2, Cxcl9 transcripts); experiment: qRT-PCR of proinflammatory mediator transcripts in uterine tissues of LPS-challenged μMT mice; details: 24 hours after intravenous fPIBF1 and 5 μg intraperitoneal LPS, fold change of transcripts
Procedure: Six to ten-week old virgin female C57BL/6 (WT) or μMT mice were mated with male Balb/c mice. Female mice were examined daily in the early morning for the presence of a vaginal plug, which denoted gestational day (gd) 0.5. In the late morning of gd 16.5, pregnant female mice were intraperitoneally administered with 200 μl sterile PBS or 200 μl sterile PBS containing 0.5, 2.5, 5, 10 or 20 μg lipopolysaccharides (LPS) from Salmonella enterica serotype typhimurium (Sigma-Aldrich L6143). The various doses of LPS were given to the mice randomly. In some experiments, splenic B cells of 5 to 8-week old virgin female WT or IL-10−/− mice were purified using a mouse resting B cell negative isolation kit (Miltenyi Biotec 130-090-862) to 94% to 99% purity as determined by CD19 staining. 107 purified B cells were adoptively transferred in 200 μl sterile PBS into pregnant female μMT mice on gd 14.5 prior to LPS administration on gd 16.5. […] They were then sacrificed for the examination of neonatal/fetal mortality, which was calculated as the total number of dead delivered pups and dead fetuses divided by the total number of implantation sites. […]

[3] = tested on: CD11b+Ly-6G+ neutrophils in uterine tissues; experiment: Flow cytometry of uterine neutrophils of LPS-challenged μMT mice; details: vs PBS; for uterine neutrophil activation (CD11b, CD18, iNOS, ICAM-1, MHC-II, CD62L expression): μMT mice 24 hours after intravenous protein and intraperitoneal LPS
Procedure: as §1, with “Uteri were collected, briefly washed in PBS and processed for RNA and protein extraction or flow cytometry. The people performing the analysis were not blinded to the genotype or treatment of the mice.” left out
Cells were incubated with an Fc blocking reagent and stained at 4° C. with antibodies to various cell surface antigens (Tables 4, 5). […] Events were acquired on an LSR II cytometer (BD Biosciences) and analyzed by FlowJo (Tree Star). […]

fPIBF1: recombinant full-length PIBF1, aa 1-757, SEQ ID NO:11, N-terminal GST tag of 232 amino acids, Abnova H00010464-P01
neonatal/fetal mortality ([1]; protein intravenous on gd 16.5 before 5 μg intraperitoneal LPS): significantly reduced | rate of preterm delivery (PTL) ([1]; protein intravenous on gd 16.5 three hours before 5 μg intraperitoneal LPS): significantly reduced | uterine induction of proinflammatory mediators (uterine inflammation) [2]: suppressed | uterine induction of proinflammatory mediators (uterine inflammation) ([2]; listed as full-length PIBF1): reduces | neutrophil infiltration into the uterus (frequency of CD11b+Ly-6G+ neutrophils in CD45+ cells) ([3]; gd 17.5 μMT mice after intravenous protein and intraperitoneal LPS on gd 16.5): inhibited | uterine neutrophil activation (CD11b, CD18, iNOS, ICAM-1, MHC-II, CD62L expression) [3]: reduced activation | uterine neutrophil activation (CD11b, CD18, iNOS, ICAM-1, MHC-II, CD62L expression) ([3]; listed as full-length PIBF1): reduces
